Here are results for 6 compounds from ChEMBL document CHEMBL1909046, “DrugMatrix in vitro pharmacology data”.

Usually pIC50 stands for the IC50 on a negative log10 scale, so that one unit is a factor of ten. The term pKi denotes the Ki on a negative log10 scale, so that one unit is a factor of ten.

pIC50, pKi: −log10 of the molar value.

Data set [1] addresses T1, Muscarinic acetylcholine receptor M4 (Homo sapiens, UniProt P08173).
T1 sequence (P08173 whole entry): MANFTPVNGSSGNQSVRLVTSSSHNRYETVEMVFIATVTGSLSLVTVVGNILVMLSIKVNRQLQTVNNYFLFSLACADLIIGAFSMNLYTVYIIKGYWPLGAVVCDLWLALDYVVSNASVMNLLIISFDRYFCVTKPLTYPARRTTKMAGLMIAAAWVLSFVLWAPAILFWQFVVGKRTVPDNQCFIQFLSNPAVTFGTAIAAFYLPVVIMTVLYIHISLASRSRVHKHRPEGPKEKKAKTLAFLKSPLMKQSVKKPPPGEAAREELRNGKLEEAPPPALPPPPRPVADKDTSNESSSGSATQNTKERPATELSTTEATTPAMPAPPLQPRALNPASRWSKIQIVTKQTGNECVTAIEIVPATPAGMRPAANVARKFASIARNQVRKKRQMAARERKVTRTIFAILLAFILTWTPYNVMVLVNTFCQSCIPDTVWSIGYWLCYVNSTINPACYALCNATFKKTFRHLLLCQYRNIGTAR
It is filed as cell membranes, CHO-K1, Membrane. The settings on record: for IC50 / Ki: cho-k1.

Data set [2] has as its target T2, Neuropeptide Y receptor type 1 (Homo sapiens, UniProt P25929).
T2 sequence (P25929 whole entry): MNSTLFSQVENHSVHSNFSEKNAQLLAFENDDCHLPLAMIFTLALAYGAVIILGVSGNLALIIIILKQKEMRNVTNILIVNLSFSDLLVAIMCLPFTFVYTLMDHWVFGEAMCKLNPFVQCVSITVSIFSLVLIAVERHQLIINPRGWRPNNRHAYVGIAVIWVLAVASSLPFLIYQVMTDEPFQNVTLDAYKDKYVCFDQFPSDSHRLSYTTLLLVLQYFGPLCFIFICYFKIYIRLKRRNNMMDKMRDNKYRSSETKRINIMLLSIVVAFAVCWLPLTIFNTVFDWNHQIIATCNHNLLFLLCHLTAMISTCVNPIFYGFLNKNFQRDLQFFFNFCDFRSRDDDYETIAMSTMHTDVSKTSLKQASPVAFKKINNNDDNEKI
It is filed as cell membranes, Membrane. The settings on record: sk-n-mc.

The target of data set [3] is T3, Nitric oxide synthase, inducible (Mus musculus, UniProt P29477).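 Further: inhibition of iNOS enzyme activity measured with L-arginine as substrate.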
T3 sequence (P29477 whole entry): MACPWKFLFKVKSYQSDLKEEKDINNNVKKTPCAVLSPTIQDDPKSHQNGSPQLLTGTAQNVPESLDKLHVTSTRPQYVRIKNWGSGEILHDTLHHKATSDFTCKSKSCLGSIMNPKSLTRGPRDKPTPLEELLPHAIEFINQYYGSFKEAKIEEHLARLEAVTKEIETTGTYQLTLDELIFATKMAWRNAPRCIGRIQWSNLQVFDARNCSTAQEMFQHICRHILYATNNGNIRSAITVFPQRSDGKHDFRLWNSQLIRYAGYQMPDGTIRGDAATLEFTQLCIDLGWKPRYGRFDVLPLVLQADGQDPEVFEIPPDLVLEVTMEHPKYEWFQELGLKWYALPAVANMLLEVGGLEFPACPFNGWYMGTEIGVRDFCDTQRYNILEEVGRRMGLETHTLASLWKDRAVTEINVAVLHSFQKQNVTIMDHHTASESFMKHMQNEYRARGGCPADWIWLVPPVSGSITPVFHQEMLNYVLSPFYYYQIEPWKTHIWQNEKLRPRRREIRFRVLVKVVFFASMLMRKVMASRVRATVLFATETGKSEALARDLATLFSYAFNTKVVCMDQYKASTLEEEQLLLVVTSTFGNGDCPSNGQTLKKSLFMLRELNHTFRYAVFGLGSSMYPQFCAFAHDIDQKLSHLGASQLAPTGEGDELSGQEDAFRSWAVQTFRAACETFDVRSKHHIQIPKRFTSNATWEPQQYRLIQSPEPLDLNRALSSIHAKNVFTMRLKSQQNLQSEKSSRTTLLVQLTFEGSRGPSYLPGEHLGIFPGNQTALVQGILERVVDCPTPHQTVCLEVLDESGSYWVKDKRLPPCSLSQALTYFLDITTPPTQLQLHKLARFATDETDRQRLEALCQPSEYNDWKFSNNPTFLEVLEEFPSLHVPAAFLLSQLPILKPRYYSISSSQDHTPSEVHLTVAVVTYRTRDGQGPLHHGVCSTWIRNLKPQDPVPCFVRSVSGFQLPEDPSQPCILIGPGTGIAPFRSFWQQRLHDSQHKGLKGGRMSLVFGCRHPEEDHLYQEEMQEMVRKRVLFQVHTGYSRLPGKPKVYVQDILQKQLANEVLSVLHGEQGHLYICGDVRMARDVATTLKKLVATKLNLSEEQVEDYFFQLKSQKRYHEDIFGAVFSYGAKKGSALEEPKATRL
On the set-up: species or system Escherichia coli.

Data set [4] has as its target T4, Cytochrome P450 1A2 (Homo sapiens, UniProt P05177).
T4 sequence (P05177 whole entry): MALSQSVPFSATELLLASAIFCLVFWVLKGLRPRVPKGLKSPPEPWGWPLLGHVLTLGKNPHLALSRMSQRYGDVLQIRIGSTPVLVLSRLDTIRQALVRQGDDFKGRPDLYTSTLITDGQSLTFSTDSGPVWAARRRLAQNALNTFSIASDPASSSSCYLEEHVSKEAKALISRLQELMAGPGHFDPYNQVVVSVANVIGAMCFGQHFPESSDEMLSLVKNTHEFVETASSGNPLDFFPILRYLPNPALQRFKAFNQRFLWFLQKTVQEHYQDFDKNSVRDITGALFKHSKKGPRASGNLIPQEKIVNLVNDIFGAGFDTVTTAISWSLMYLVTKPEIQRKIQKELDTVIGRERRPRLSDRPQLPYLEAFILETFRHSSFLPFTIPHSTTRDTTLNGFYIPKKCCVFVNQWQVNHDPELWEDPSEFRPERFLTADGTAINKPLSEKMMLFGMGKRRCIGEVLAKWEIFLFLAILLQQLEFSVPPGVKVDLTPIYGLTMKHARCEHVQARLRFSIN
Conditions: bti-tn-5b1-4.

Data set [5] addresses Cytochrome P450 3A4 (Homo sapiens, UniProt P08684). Conditions: bti-tn-5b1-4.
Data set [6] deals with Estrogen receptor beta (Homo sapiens, UniProt Q92731). Conditions: sf9.
Chain of Estrogen receptor beta (Q92731 whole entry): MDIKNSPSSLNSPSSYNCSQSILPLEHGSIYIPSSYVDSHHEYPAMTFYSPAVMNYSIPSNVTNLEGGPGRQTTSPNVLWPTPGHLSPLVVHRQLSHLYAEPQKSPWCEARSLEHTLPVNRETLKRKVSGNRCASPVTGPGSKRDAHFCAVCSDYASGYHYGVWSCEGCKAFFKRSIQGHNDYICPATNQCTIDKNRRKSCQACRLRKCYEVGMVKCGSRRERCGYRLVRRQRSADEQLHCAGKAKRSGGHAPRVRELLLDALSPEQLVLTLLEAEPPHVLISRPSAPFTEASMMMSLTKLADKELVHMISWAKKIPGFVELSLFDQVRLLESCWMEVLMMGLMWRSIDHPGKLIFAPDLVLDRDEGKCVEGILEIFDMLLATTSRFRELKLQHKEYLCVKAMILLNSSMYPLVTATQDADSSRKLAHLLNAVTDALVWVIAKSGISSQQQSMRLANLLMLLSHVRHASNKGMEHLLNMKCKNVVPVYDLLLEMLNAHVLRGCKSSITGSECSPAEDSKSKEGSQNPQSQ
Further: in other assays of this panel Not Active means under 50% inhibition at 10 µM.

Chain of Cytochrome P450 3A4 (P08684 whole entry): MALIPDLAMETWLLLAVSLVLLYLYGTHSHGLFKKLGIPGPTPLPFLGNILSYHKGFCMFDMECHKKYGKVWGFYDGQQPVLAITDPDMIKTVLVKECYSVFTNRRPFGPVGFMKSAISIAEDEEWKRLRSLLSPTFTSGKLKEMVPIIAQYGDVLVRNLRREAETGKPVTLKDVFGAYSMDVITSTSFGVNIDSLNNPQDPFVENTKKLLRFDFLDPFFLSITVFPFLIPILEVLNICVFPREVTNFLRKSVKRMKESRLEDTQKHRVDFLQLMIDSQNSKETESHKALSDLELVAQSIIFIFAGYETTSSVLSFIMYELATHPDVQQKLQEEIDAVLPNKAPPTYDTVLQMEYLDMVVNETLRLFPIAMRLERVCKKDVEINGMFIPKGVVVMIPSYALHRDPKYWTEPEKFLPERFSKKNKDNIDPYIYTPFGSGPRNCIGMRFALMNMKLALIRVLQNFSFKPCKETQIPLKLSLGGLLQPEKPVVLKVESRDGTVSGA

Take `CCc1ccc(CCOc2ccc(CC3SC(=O)NC3=O)cc2)nc1` (configuration not stated) [PIOGLITAZONE]: the IC50 result in data set [1], in data set [2], in data set [3], in data set [4], in data set [5] and in data set [6] was “Not Active” throughout. Also, the Ki result in data set [4] and in data set [5] was “Not Active” each time.

`CCN(CC)CCNC(=O)c1ccc(N)cc1` [PROCAINAMIDE]: the IC50 entry in data set [1], in data set [2], in data set [3], in data set [4], in data set [5] and in data set [6] was “Not Active” each time. The Ki result in data set [4] and in data set [5] was “Not Active” in each case.

With `CCN(CC)CCCC(C)Nc1c2ccc(Cl)cc2nc2ccc(OC)cc12` (configuration not stated) [QUINACRINE], the pIC50 in data set [1] (read-out: IC50) was 5.70. For the same compound, in data set [1] (read-out: Ki), the pKi was 6.56. Also, the IC50 entry in data set [2], in data set [3], in data set [4], in data set [5] and in data set [6] was “Not Active” throughout. Further, the Ki entry in data set [4] and in data set [5] was “Not Active” each time.

As for `CC[C@]1(O)C[C@@H]2CN(CCc3c([nH]c4ccccc34)[C@@](C(=O)OC)(c3cc4c(cc3OC)N(C)[C@H]3[C@@](O)(C(N)=O)[C@H](O)[C@]5(CC)C=CCN6CC[C@]43[C@@H]65)C2)C1` [VINDESINE], the IC50 result in data set [1], in data set [2], in data set [3], in data set [4], in data set [5] and in data set [6] was “Not Active” each time. The Ki result in data set [4] and in data set [5] was “Not Active” each time.

In the case of COBALTOUS CHLORIDE, the IC50 result in data set [1], in data set [2], in data set [3], in data set [4], in data set [5] and in data set [6] was “Not Active” each time. Further, the Ki result in data set [1], in data set [2], in data set [3], in data set [4], in data set [5] and in data set [6] was “Not Active” each time.

With COLISTIN, the IC50 result in data set [1], in data set [2], in data set [3], in data set [4], in data set [5] and in data set [6] was “Not Active” throughout. Also, the Ki result in data set [1], in data set [2], in data set [3], in data set [4], in data set [5] and in data set [6] was “Not Active” in each case.
